In US6696600B2, “L-DOPA ethyl ester salts and uses thereof” (priority 2001, dated 2004):
Where two headings read alike, the source gives them in different places.

Key:
[1] = Exposure of hygroscopic salts to atmospheric air
[2] = Hygroscopicity test: weight gain of solid sample in humidity chamber at RH=80%; format: physicochemical; conditions: for hygroscopicity (in words): RH=80% screening; for weight gain in hygroscopicity test / appearance after exposure in a humidity chamber: RH=80%; for weight gain in hygroscopicity test: T=20±2° C., during 24 hrs
Description: There are many methods of quantitative evaluation of hygroscopicity of solid products without measuring the hygroscopic point. The most widely used method is based on measuring the weight gain of a solid sample in a humidity chamber. […] This method was used for screening the hygroscopicity of several LDEE salts. It also provides a comparison of the hygroscopic properties of different solids by comparison of water absorption rates under the same conditions.

[3] = pKa and delta pKa (pKa LDEE − pKa acid); format: physicochemical
Description: Preparation and selection of salts that have different physical properties are detailed in the literature. […]. PKa of LDEE free base is known to be 7.24 [8]. […]. This fact is illustrated in Example 1 below, in which the crystallization of LDEE palmitate was attempted. After dissolution of LDEE base and palmitic acid in absolute alcohol, the solution was cooled, and instead of forming a new salt, pure palmitic acid was crystallized out, and no solid crystalline salt was formed. […]

[4] = pH of water solution; format: physicochemical
[5] = Stability of dihydrates, impurity profile (HPLC), 8 days at 65° C.; format: physicochemical
Procedure: The stability of succinate dihydrate and fumarate dihydrate were investigated under the following test conditions: 8 days at 65° C. in glass vial (air) (Table 1).

[6] = background statement; cited from earlier work
[7] = background, from references; cited from earlier work
[8] = cited from earlier work; for pKa (first value): acid or acid salt used for salt preparation
[9] = End, 8 days at 65° C. in glass vial (air)

SMILES | Color stability at RH = 80% ([2]; RH = 80%) [h] | Mean water absorption rate at RH = 80% ([2]; RH = 80%) [mol/kg/h] | Material appearance after 24 hrs at RH = 80% ([2]; RH = 80%) | Weight gain during 24 hrs at RH = 80%,% ([2]; RH = 80%) [%] | hygroscopicity (in words) [2] | weight gain in hygroscopicity test [2] [%] | delta pKa pKaLDEE − pKaacid (first value) [3] | pKa (first value) [8] | also measured
CC(=O)O.CCOC(=O)[C@@H](N)Cc1ccc(O)c(O)c1 [Example 2, LDEE Acetate] | 1.5 | 0.155 | Semi-solid melt | 6.7 | hygroscopic | 6.7 | 2.48 |  | behaviour in atmospheric air (in words) [1]: deliquescent
CCOC(=O)[C@@H](N)Cc1ccc(O)c(O)c1.CS(=O)(=O)O [Example 3, LDEE Mesylate] | >24 | 0.405 | Syrup | 17.5 | hygroscopic | 17.5 | 6.04 |  | behaviour in atmospheric air (in words) [1]: deliquescent
CCOC(=O)[C@@H](N)Cc1ccc(O)c(O)c1.CCOC(=O)[C@@H](N)Cc1ccc(O)c(O)c1.O.O.O=C(O)CCC(=O)O [Example 23, LDEE Succinate Dihydrate] | >72 | 0.006 | White flowable powder | 0.27 | non-hygroscopic | 0.27 | 3.08 |  | pH of water solution [4]: 5.8; water absorption at RH=80% (in words) ([2]; RH = 80%): did not absorb water; appearance after exposure in a humidity chamber ([2]; about 72 hrs): white flowable powder; Assay LDEE (%) [5, 9]: 73.46%; L-DOPA (%) [5, 9]: 0.56%; Unknown RRT = 0.83 (%) [5, 9]: 0.03%; cyc.L-DOPA (%) [5, 9]: 0.03%; Assay LDEE (%) ([5]; Start): 74.1%; L-DOPA (%) ([5]; Start): 0.1%; delta pKa pKaLDEE − pKaacid (second value) [3]: 1.63
CCOC(=O)[C@@H](N)Cc1ccc(O)c(O)c1.CCOC(=O)[C@@H](N)Cc1ccc(O)c(O)c1.O.O.O=C(O)/C=C/C(=O)O [Example 25, LDEE Fumarate Dihydrate] | >48 | 0.0004 | White flowable powder | 0.04 | non-hygroscopic | 0.04 | 4.21 |  | pH of water solution [4]: 5.5; water absorption at RH=80% (in words) ([2]; RH = 80%): did not absorb water; appearance after exposure in a humidity chamber ([2]; more than 48 hrs): white flowable powder; Assay LDEE (%) [5, 9]: 75.0%; L-DOPA (%) [5, 9]: 0.27%; LD-LDEE (%) [5, 9]: 0.03%; Unknown RRT = 0.72 (%) [5, 9]: 0.09%; cyc.L-DOPA (%) [5, 9]: L.T. 0.03%; Assay LDEE (%) ([5]; Start): 75.0%; L-DOPA (%) ([5]; Start): 0.11%; LD-LDEE (%) ([5]; Start): L.T. 0.03%; delta pKa pKaLDEE − pKaacid (second value) [3]: 2.7
CCOC(=O)[C@@H](N)Cc1ccc(O)c(O)c1 [LDEE, L-DOPA ethyl ester] |  | 0.005 | White flowable powder | 0.24 | not a hygroscopic material |  | 0 |  | aqueous solution pH [6]: 8.2; hygroscopicity (in words) [7]: non-hygroscopic; pH of water solution [4]: 8.2; Color stability at RH = 80%, hrs ([2]; RH = 80%): ˜50 hrs
CCCCCCCCCCCCCC(=O)O [Myristic acid] |  |  |  |  |  |  |  | ˜4.8 | 
CCCCCCCC/C=C\CCCCCCCC(=O)O [Oleic acid] |  |  |  |  |  |  |  | ˜4.8 | 
CCCCCCCCCCCCCCCC(=O)O [Palmitic acid] |  |  |  |  |  |  |  | ˜4.8 | pKa [8]: 4.8; DpKa [3]: 2.4
O=C(O)CCCc1ccccc1 [Phenyl Butyric acid] |  |  |  |  |  |  |  | 4.76 | 
CCCCCCCCCCCCCCCCCC(=O)O [Stearic acid] |  |  |  |  |  |  |  | ˜4.8 | 
CCOC(=O)[C@@H](N)Cc1ccc(O)c(O)c1.Cl [hydrochloride salt of LDEE] |  |  |  |  |  |  |  |  | hygroscopicity (in words) [7]: extremely hygroscopic
